Reference: patent US8802678B2, “Carbonylated (aza) cyclohexanes as dopamine D3 receptor ligands” (Bioprojet, priority 2006, dated 2014)

Row | melting point [°C] | SMILES
1 | 225 | O=C(N[C@H]1CC[C@H](CCN2CCN(c3cccc(F)c3F)CC2)CC1)C1=CCCC1 [Example 447, Cyclopent-1-enecarboxylic acid (4-{2-[4-(2,3-difluorophenyl)-piperazin-1-yl]ethyl}cyclohexyl) amide]
2 | 198 | N#CCCCC(=O)N[C@H]1CC[C@H](CCN2CC=C(c3ccc(Cl)cc3)CC2)CC1
3 | 120 | COCC(=O)N[C@H]1CC[C@H](CCN2CCN(c3cccc4c3CCCC4)CC2)CC1 [Example 130, 2-Methoxy-N-(4-{2-[4-(5,6,7,8-tetrahydronaphthalen-1-yl)piperazin-1-yl]ethyl}cyclohexyl)acetamide]
4 | 139 | COCC(=O)N[C@H]1CC[C@H](CCN2CCN(c3cc(C(F)(F)F)ccc3F)CC2)CC1 [Example 701, N-(4-{2-[4-(2-Fluoro-5-trifluoromethylphenyl)piperazin-1-yl]ethyl}cyclohexyl)-2-methoxyacetamide]
5 | 163 | COc1ccc(C(C)(C)C)cc1N1CCN(CC[C@H]2CC[C@H](NC(=O)CC#N)CC2)CC1 [Example 197, N-(4-{2-[4-(5-tert-Butyl-2-methoxyphenyl)piperazin-1-yl]ethyl}cyclohexyl)-2-cyanoacetamide]
6 | 179 | N#CCCCC(=O)N[C@H]1CC[C@H](CCN2CCN(c3cc(Cl)cc(Cl)c3)CC2)CC1 [Example 261, 4-Cyano-N-(4-{2-[4-(3,5-dichlorophenyl)piperazin-1-yl]ethyl}cyclohexyl)butanamide trans/cis 98/2]
7 | 308 | CC(=O)CN1CCC(CCN2CCN(c3cc(C(C)(C)C)cc(C(C)(C)C)c3)CC2)CC1.Cl.Cl
8 | 192 | O=C(N[C@H]1CC[C@H](CCN2CCN(c3cccc(C(F)(F)F)c3F)CC2)CC1)C1=COCC1 [Example 497, 4,5-Dihydrofuran-3-carboxylic acid (4-{2-[4-(2-fluoro-3-trifluoromethylphenyl)piperazin-1-yl]ethyl}cyclohexyl) amide]
9 | 206 | Cl.O=C(CC(F)(F)F)N1CCC(CCN2CCN(c3cccc4c3CCC4)CC2)CC1
10 | 220 | Cc1ccc(N2CCN(CC[C@H]3CC[C@H](NC(=O)CC#N)CC3)CC2)cc1Cl [Example 369, N-(4-{2-[4-(3-Chloro-4-methylphenyl)piperazin-1-yl]ethyl}cyclohexyl)-2-cyanoacetamide]
11 | 172 to 174 | CC(=O)CCC(=O)N[C@H]1CC[C@H](CCN2CCN(c3cc(C(F)(F)F)cc(C(F)(F)F)c3)CC2)CC1 [Example 222, 4-Oxopentanoic acid (4-{2-[4-(3,5-bis-trifluoromethylphenyl)piperazin-1-yl]ethyl}cyclohexyl)amide]
12 | 283 | CC(=O)CN1CCC(CCN2CCN(c3ccc(F)cc3C)CC2)CC1.Cl.Cl
13 | 200 | N#CCC(=O)N[C@H]1CC[C@H](CCN2CCN(c3cc(Cl)c(Cl)cc3Cl)CC2)CC1 [Example 717, 2-Cyano-N-(4-{2-[4-(2,4,5-trichlorophenyl)piperazin-1-yl]ethyl}cyclohexyl)acetamide]
14 | 117 | COCc1cccc(N2CCN(CC[C@H]3CC[C@H](NC(=O)CC#N)CC3)CC2)c1 [Example 270, 2-Cyano-N-(4-{2-[4-(3-methoxymethylphenyl)piperazin-1-yl]ethyl}cyclohexyl)acetamide]
15 | 90 | CC(=O)CN1CCC(CCN2CCN(c3cc(F)ccc3F)CC2)CC1 [Example 663, 1-(4-{2-[4-(2,5-Difluorophenyl)piperazin-1-yl]ethyl}piperidin-1-yl)propan-2-one]
16 | 190 | N#CCCCC(=O)N[C@H]1CC[C@H](CCN2CCN(c3ccc(Cl)cc3)CC2)CC1 [Example 479, N-(4-{2-[4-(4-Chlorophenyl)piperazin-1-yl]ethyl}cyclohexyl)-4-cyanobutanamide]

Row | melting point [°C] | SMILES
17 | 132 | CSc1cccc(N2CCN(CC[C@H]3CC[C@H](NC(=O)CC#N)CC3)CC2)c1 [Example 182, 2-Cyano-N-(4-{2-[4-(3-methylsulfanylphenyl)piperazin-1-yl]ethyl}cyclohexyl)acetamide]
18 | 275 | COc1ccc(Cl)cc1N1CCN(CCC2CCN(CC(C)=O)CC2)CC1.Cl.Cl
19 | 200 | N#CCC(=O)N[C@H]1CC[C@H](CCN2CCN(c3cc(Cl)ccc3F)CC2)CC1 [Example 171, N-(4-{2-[4-(5-Chloro-2-fluorophenyl)piperazin-1-yl]ethyl}cyclohexyl)-2-cyanoacetamide]
20 | 222 | N#CCC(=O)N[C@H]1CC[C@H](CCN2CCN(c3cccc(C(F)(F)F)c3C#N)CC2)CC1 [Example 103, 2-Cyano-N-(4-{2-[4-(2-cyano-3-trifluoromethylphenyl)piperazin-1-yl]ethyl}cyclohexyl)acetamide]
21 | 150 | Cc1cc(F)cc(N2CCN(CC[C@H]3CC[C@H](NC(=O)CCCC#N)CC3)CC2)c1 [Example 726, 4-Cyano-N-(4-{2-[4-(3-fluoro-5-methylphenyl)piperazin-1-yl]ethyl}cyclohexyl)butanamide]
22 | 160 | CC(=O)CC1CCC(CCN2CCN(c3cccc(C(F)(F)F)c3)CC2)CC1.Cl (stereo not shown)
23 | 96 | CCOCC(=O)N[C@H]1CC[C@H](CCN2CCN(c3ccccc3C#N)CC2)CC1 [Example 73, N-(4-{2-[4-(2-Cyanophenyl)-piperazin-1-yl]ethyl}cyclohexyl)-2-ethoxyacetamide]
24 | 169 | Cc1cc(C)cc(N2CCN(CC[C@H]3CC[C@H](NC(=O)CCCC#N)CC3)CC2)c1 [Example 249, 4-Cyano-N-(4-{2-[4-(3,5-dimethylphenyl)piperazin-1-yl]ethyl}cyclohexyl)butanamide]
25 | 177 | CN(C)c1cccc(N2CCN(CC[C@H]3CC[C@H](NC(=O)CC#N)CC3)CC2)c1 [Example 150, 2-Cyano-N-(4-{2-[4-(3-dimethylaminophenyl)piperazin-1-yl]ethyl}cyclohexyl)acetamide]
26 | 165 | N#CCCCC(=O)N[C@H]1CC[C@H](CCN2CCN(c3cc(Cl)ccc3F)CC2)CC1 [Example 414, N-(4-{2-[4-(5-Chloro-2-fluorophenyl)piperazin-1-yl]ethyl}cyclohexyl)-4-cyanobutanamide]
27 | 145 | COc1cccc(N2CCN(CC[C@H]3CC[C@H](NC(=O)CCCC#N)CC3)CC2)c1 [Example 416, 4-Cyano-N-(4-{2-[4-(3-methoxyphenyl)piperazin-1-yl]ethyl}cyclohexyl)butanamide]
28 | 277 to 278 | COc1cc(N2CCN(CCC3CCN(CC(C)=O)CC3)CC2)cc(C(F)(F)F)c1.Cl.Cl
29 | 68 | CC(=O)CN1CCC(CCN2CCN(c3cc(F)c(F)cc3F)CC2)CC1 [Example 744, 1-(4-{2-[4-(2,4,5-Trifluoro-phenyl)-piperazin-1-yl]ethyl}piperidin-1-yl)propan-2-one]
30 | 178 | COc1ccc(C)cc1N1CCN(CC[C@H]2CC[C@H](NC(=O)CC#N)CC2)CC1 [Example 195, 2-Cyano-N-(4-{2-[4-(2-methoxy-5-methylphenyl)piperazin-1-yl]ethyl}cyclohexyl)acetamide]
31 | 250 | CC(=O)CN1CCC(CCN2CCN(c3cccc(C(=O)C(C)C)c3)CC2)CC1.Cl.Cl
